Experimental data taken from patent US20250034171A1, “IMIDAZOPYRIDINE AMIDES AND RELATED COMPOUNDS FOR USE IN THE TREATMENT OF BACTERIAL INFECTIONS” (priority 2021, published 2025).
Converted amounts (≈) assume the structure as drawn. Read-outs that look alike come from different tables or passages of the source.

Assays:
[1] = HTChem stab assay (chemical stability in buffer pH2, pH4 and pH7 vs DMSO reference); format: physicochemical
Experimental: HTChem stab assay was used to assess the chemical stability of the compounds. 72 h stirring at rt in a buffer pH2, pH4 and pH7 vs a reference DMSO solution. HTChem stab assay is based on the handbook of Pharmaceutical Stress Testing, Predicting Drug Degradation, second edition, authors Baertschi, Alsante, Reed ISBN 978-143980179-6.
Compounds were plated (1 μl 10 mM DMSO stock in 96 well plate (DMSO control+3 pH conditions), one plate per condition).
200 μL of respectively DMSO, Buffer/DMSO mix pH2, Buffer/DMSO mix pH4 and Buffer/DMSO mix pH7 was added.
After 72 h shaking (300 rpm) at room temperature the samples were analysed by LC/UV/MS. Chromatograms of samples (stability conditions) were compared with the chromatograms of control sample (DMSO). Extra peaks were flagged and identified by mass spectrometry. Sample purity (reference included) were reported.
• pH3 buffer: For 11; weigh 4.14 g NaH2PO4·H2O, add 600 ml H2O, add H3PO4 to pH3, add H2O to 1000 ml. Filter over 0.2 μm and store at 4° C. Expires after 30 days. • pH6 buffer: For 1 l; weigh 4.14 g NaH2PO4·H2O, add 600 ml H2O, add 1N NaOH to pH6, add H2O to 1000 ml. Filter over […] and store at 4° C. Expires after 30 days.
• pH2 Buffer/DMSO (StabSolvent): mix 2 parts of HCl 0.1N with 1 part of DMSO • pH4 Buffer/DMSO (StabSolvent): mix 2 parts of buffer pH3 with 1 part of DMSO • pH7 Buffer/DMSO (StabSolvent): mix 2 parts of buffer pH6 with 1 part of DMSO measure pH prior to use.
Instrument: Acquity UPLC; Column: Acquity HSS T3, 50 mm length×2.1 mm i.d., 1.8 μm particle size. Detectors: PDA (250-350 nm) and SQD2 (90-1500m/z). Mobile phase A: 0.1% Formic acid in water; Mobile phase B: 0.1% Formic acid in Acetonitrile.
Injection volume: 5 μL, flow rate 0.6 mL/min.
Data processing including peak integration and identification was done with Waters OpenLynx software.

[2] = system: Mycobacterium tuberculosis strain H37Rv; experiment: Test 2: MIC determination against M. tuberculosis, resazurin fluorescence; format: cell-based; details: Test 2, M. tuberculosis H37Rv; for MIC90: read-out: Bacterial activity MIC90; for IC50: read-out: Bacterial activity pMIC50 (converted)
[3] = Metabolic stability in liver microsomes (intrinsic clearance); format: in vitro ADME
Experimental: The test compound was incubated under the generic condition (0.5 mg/ml microsomal protein, 1 mM NADPH, 1 mM MgCl2, and 0.1 M phosphate buffer, pH 7.4, 37° C.) at a defined substrate concentration (typically 1 μM) in liver microsomes of selected species across a time course (typically 0, 5, 10, 20, 40 and 60 minutes) at Cyprotex (Cheshire, UK). The liver microsomes, buffer and test compound will be pre-incubated for 5 minutes. The addition of the co-factor NADPH will initiate the reaction and the reaction was terminated by addition of acetonitrile. The samples were centrifuged prior to analysis by LC-MS/MS analysis. The relative amount of parent compound remaining in the active incubations vs. the control incubations (t=0 mins) for each compound was measured by peak area comparison. The in vitro metabolic half-life (t1/2) was calculated using the slope of the log-linear regression from the percentage parent compound remaining versus time relationship (κ), The in vitro intrinsic clearance (Cl^int) (μl/min/mg microsomal protein) was calculated using the in vitro metabolic half-life, incubation volume and the weight of microsomal protein in the incubation.

[4] = system: Salmonella typhimurium Ames II Mixed Strains (TA7001-TA7006) and TA98; experiment: Genotoxicity assay (AmesIIb mutagenicity test); format: cell-based; further: key: an AmesIIb score of 1 shows no genotoxicity signals
From the text: The aim is to evaluate compounds (and/or their metabolites) for their ability to induce reverse mutations in a gene of histidine-requiring Salmonella typhimurium strains to produce histidine-independent strains of these bacteria, in the absence and in the presence of a mammalian metabolic activation system.
Point mutations were made in the histidine (His) operon in Salmonella typhimurium, rendering the bacteria incapable of producing histidine. These single base substitutions are positioned at strategic points within the His gene, resulting in his-organisms that cannot grow unless histidine is supplied. When a mutagenic event occurs, base substitutions within the His gene then cause the reversion of the his-Ames II™ strains to His.
A chemical's mutagenic potential is assessed by exposing these his-organisms to varying concentrations of chemical and selecting for the reversion event. Medium lacking histidine is used for this selection which allows only those cells that have undergone the his- to His reversion to survive and grow.
The assay may be performed using a kit and instructions from Xenometric. The two strains provided in the Xenometric kit are the Ames II™ Mixed Strains and TA98. The Ames II™ Mixed Strains contains an equimolar mixture of the Ames II™ TA7001-TA7006 strains. Individually, these strains are designed to revert by only one specific base-pair substitution out of six possible changes. Thus, when mixed, all six base substitution mutations can be represented in one culture. This kit also contains TA98 for the detection of frameshift mutations.

[5] = Mycobacterium tuberculosis, H37RV
[6] = human, microsomes, pH 7.4, Metabolic Stability Half life (human, min.)
[7] = human, microsomes, pH 7.4, human liver microsomes, read-out: Metabolic Stability (liver microsome intrinsic clearance) Clearance (human, μl/min./mg protein)
[8] = mouse, microsomes, pH 7.4, Metabolic Stability Half life (mouse, min.)
[9] = mouse, microsomes, pH 7.4, mouse liver microsomes, read-out: Metabolic Stability (liver microsome intrinsic clearance) Clearance (mouse, μl/min./mg protein)

Structure (SMILES)	MIC90 [2, 5] [µM]	IC50 [2, 5] [pM]	half-life at 1 µM [3, 8] [h]	microsomal CLint at 1 µM [3, 9] [µL/min/mg]	GeneTox AmesIIb Score ([4]; Salmonella typhimurium)	also measured
CCc1nc2cc(F)ccn2c1C(=O)NCc1ccc(-c2nc3n(n2)CCC(C(F)(F)F)C3)cc1 (racemic) [Compound 7ab]						Chemical stability data, Buffer pH2 ([1]; buffer pH2/DMSO, 72 h stirring at rt): 100%; Chemical stability data, Buffer pH4 ([1]; buffer pH4/DMSO, 72 h stirring at rt): 100%; Chemical stability data, Buffer pH7 ([1]; buffer pH7/DMSO, 72 h stirring at rt): 100%; Chemical stability data, Vehicle DMSO ([1]; reference DMSO solution, 72 h stirring at rt): 100%; Bacterial activity pMIC50 [2]: 8.362; MIC90 [2]: 0.014 µM (≈ 0.00681 µg/mL); Metabolic Stability (liver microsome intrinsic clearance) Clearance (mouse, μl/min./mg protein) ([3]; mouse liver microsomes): 20.5 μl/min./mg protein; Metabolic Stability Half life (mouse, min.) ([3]; mouse liver microsomes): 1.13 h
CCc1nc2ncc(C)cn2c1C(=O)NCc1ccc(-c2nc3n(n2)CCC(C(F)(F)F)C3)cc1 (single isomer, unassigned) [Compound 1a]	0.009 (≈ 0.00435 µg/mL)	3130	> 3	< 7.7		Chemical stability data, Vehicle DMSO ([1]; 72 h, 50 µM): 100%; Chemical stability data, Buffer pH2 ([1]; 72 h, 50 µM, pH 2): 100%; Chemical stability data, Buffer pH4 ([1]; 72 h, 50 µM, pH 4): 100%; Chemical stability data, Buffer pH7 ([1]; 72 h, 50 µM, pH 7): 100%; half-life at 1 µM [3, 6]: > 3 h; microsomal CLint at 1 µM [3, 7]: < 7.7 µL/min/mg
O=C(NCc1ccc(-c2nc3n(n2)CCC(C(F)(F)F)C3)cc1)c1c(C(F)(F)F)nc2ncccn12 (single isomer, unassigned) [Compound 2a]						Bacterial activity pMIC50 [2]: 7.648; MIC90 [2]: 0.086 µM (≈ 0.0438 µg/mL); Metabolic Stability (liver microsome intrinsic clearance) Clearance (human, μl/min./mg protein) ([3]; human, microsomes): <7.7 μl/min./mg protein; Metabolic Stability Half life (human, min.) ([3]; human, microsomes): >3 h; Metabolic Stability (liver microsome intrinsic clearance) Clearance (mouse, μl/min./mg protein) ([3]; mouse, microsomes): 11.4 μl/min./mg protein; Metabolic Stability Half life (mouse, min.) ([3]; mouse, microsomes): 2.02 h; GeneTox AmesIIb Score [4]: 1
O=C(NCc1ccc(-c2nc3n(n2)CCC(C(F)(F)F)C3)cc1)c1c(C(F)(F)F)nc2ncccn12 (single isomer, unassigned) [Compound 2b]						Bacterial activity pMIC50 [2]: 7.502; MIC90 [2]: 0.098 µM (≈ 0.0499 µg/mL); Metabolic Stability (liver microsome intrinsic clearance) Clearance (human, μl/min./mg protein) ([3]; human, microsomes): <7.7 μl/min./mg protein; Metabolic Stability Half life (human, min.) ([3]; human, microsomes): >3 h; Metabolic Stability (liver microsome intrinsic clearance) Clearance (mouse, μl/min./mg protein) ([3]; mouse, microsomes): 12.3 μl/min./mg protein; Metabolic Stability Half life (mouse, min.) ([3]; mouse, microsomes): 1.87 h; GeneTox AmesIIb Score [4]: 1
CCc1nc2ncc(C)cn2c1C(=O)NCc1ccc(-c2cn3c(n2)CC(C(F)(F)F)CC3)cc1 (single isomer, unassigned) [Compound 3b]						Bacterial activity pMIC50 [2]: 8.483; MIC90 [2]: 0.010 µM (≈ 0.00483 µg/mL); Metabolic Stability (liver microsome intrinsic clearance) Clearance (human, μl/min./mg protein) ([3]; human, microsomes): 26.1 μl/min./mg protein; Metabolic Stability Half life (human, min.) ([3]; human, microsomes): 0.887 h; Metabolic Stability (liver microsome intrinsic clearance) Clearance (mouse, μl/min./mg protein) ([3]; mouse, microsomes): 23.8 μl/min./mg protein; Metabolic Stability Half life (mouse, min.) ([3]; mouse, microsomes): 0.972 h; GeneTox AmesIIb Score [4]: 1
CCc1nc2nc(C)ccn2c1C(=O)NCc1ccc(-c2nc3n(n2)CCC(C(F)(F)F)C3)cc1 (centres unmarked) [Compound 5b]						Bacterial activity pMIC50 [2]: 7.873; MIC90 [2]: 0.044 µM (≈ 0.0213 µg/mL); Metabolic Stability (liver microsome intrinsic clearance) Clearance (mouse, μl/min./mg protein) ([3]; mouse, microsomes): <7.7 μl/min./mg protein; Metabolic Stability Half life (mouse, min.) ([3]; mouse, microsomes): >3 h; GeneTox AmesIIb Score [4]: 1
CCc1nc2ncc(C)cn2c1C(=O)NCc1ccc(-c2nc3n(n2)CCC(C(F)(F)F)C3)c(C)n1 (centres unmarked) [Compound 37]	0.0035 (≈ 0.00174 µg/mL)	12600	> 2.8	< 7.7	1	
CCc1nc2ncc(C)cn2c1C(=O)NCc1cc(C)c(-c2nc3n(n2)CCC(C(F)(F)F)C3)cn1 (centres unmarked) [Compound 38]	0.052 (≈ 0.0259 µg/mL)	17000	> 3	< 7.7	1	
CCc1nc2ncc(C)cn2c1C(=O)NCc1ccc(-c2nc3n(n2)CCC(C(F)(F)F)C3)cn1 (centres unmarked) [Compound 39]	0.16 (≈ 0.0775 µg/mL)	49000	> 3	< 7.7	1	
CCc1nc2ccc(F)cn2c1C(=O)NCc1ccc(-c2nc3n(n2)CC[C@H](C(F)(F)F)C3)cc1 [Compound 50]	0.11 (≈ 0.0535 µg/mL)	28200	1.97	11.7	1	
[2H]C([2H])([2H])c1cnc2nc(CC)c(C(=O)NCc3ccc(-c4nc5n(n4)CC[C@H](C(F)(F)F)C5)cc3)n2c1 [Compound 51]	0.008 (≈ 0.00389 µg/mL)	3160	> 3	< 7.7	1	
CCc1cnc2nc(CC)c(C(=O)NCc3ccc(-c4nc5n(n4)CC[C@@H](C(F)(F)F)C5)cc3)n2c1 [Compound 59]	0.061 (≈ 0.0303 µg/mL)	17800	0.39	59.4	1	half-life at 1 µM [3, 6]: 0.0667 h; microsomal CLint at 1 µM [3, 7]: 347 µL/min/mg
CCc1cnc2nc(CC)c(C(=O)NCc3ccc(-c4nc5n(n4)CC[C@H](C(F)(F)F)C5)cc3)n2c1 [Compound 62]	0.033 (≈ 0.0164 µg/mL)	11000	0.4	57.8	1	half-life at 1 µM [3, 6]: 0.0783 h; microsomal CLint at 1 µM [3, 7]: 294 µL/min/mg
CCc1nc2ncc(C)cn2c1C(=O)NCc1ccc(-c2cn3c(n2)CC(C)CC3)cc1 (centres unmarked) [Compound 89]	0.046 (≈ 0.0197 µg/mL)	14100	> 3	< 7.7	1	
CCc1nc2nc(C)ccn2c1C(=O)NCc1ccc(-c2cn3c(n2)CC(C)CC3)cc1 (centres unmarked) [Compound 91]	0.48 (≈ 0.206 µg/mL)	191000	> 3	< 7.7	1	
CCc1nc2ncc(C)cn2c1C(=O)NCc1ccc(-c2cc3n(n2)CCCC3)cc1 [Compound 95]	0.011 (≈ 0.00456 µg/mL)	3630	0.978	0.012	1	half-life at 1 µM [3, 6]: > 9.33 h; microsomal CLint at 1 µM [3, 7]: < 1.2 µL/min/mg
CCc1nc2ncc(C)cn2c1C(=O)NCc1ccc(-c2nc3n(n2)CCC(COC)C3)cc1 (centres unmarked) [Compound 102]	0.058 (≈ 0.0267 µg/mL)	25700	> 3	< 7.7	1	
CCc1nc2ncc(C)cn2c1C(=O)NCc1ccc(-c2nc3n(n2)CCC(C(C)(F)F)C3)c(F)c1 (centres unmarked) [Compound 106]	0.03 (≈ 0.0149 µg/mL)	12000	1.92	12.1	1	
